In general, pIC50 refers to the IC50 on a negative log10 scale, so that one unit is a factor of ten. Higher therefore signals a small IC50.

Each structure is given as a SMILES string. pIC50: −log10 of the molar value.

The text below walks through data of US6143764A, “Quinoline and quinazoline derivatives inhibiting platelet-derived growth factor receptor autophosphorylation and pharmaceutical compositions containing the same” (priority 1995, dated 2000).

One test deals with T1, PDGF receptor (Rattus norvegicus, UniProt Q05030).
T1 construct: cultured rat mesangial cells which are known to have the PDGF receptor; endogenous in cells; host or cells: primary mesangial cells cultured from glomeruli of Wistar-Kyoto rats (Charles River Japan), more than 5 passages
T1 sequence (Q05030 32-1097): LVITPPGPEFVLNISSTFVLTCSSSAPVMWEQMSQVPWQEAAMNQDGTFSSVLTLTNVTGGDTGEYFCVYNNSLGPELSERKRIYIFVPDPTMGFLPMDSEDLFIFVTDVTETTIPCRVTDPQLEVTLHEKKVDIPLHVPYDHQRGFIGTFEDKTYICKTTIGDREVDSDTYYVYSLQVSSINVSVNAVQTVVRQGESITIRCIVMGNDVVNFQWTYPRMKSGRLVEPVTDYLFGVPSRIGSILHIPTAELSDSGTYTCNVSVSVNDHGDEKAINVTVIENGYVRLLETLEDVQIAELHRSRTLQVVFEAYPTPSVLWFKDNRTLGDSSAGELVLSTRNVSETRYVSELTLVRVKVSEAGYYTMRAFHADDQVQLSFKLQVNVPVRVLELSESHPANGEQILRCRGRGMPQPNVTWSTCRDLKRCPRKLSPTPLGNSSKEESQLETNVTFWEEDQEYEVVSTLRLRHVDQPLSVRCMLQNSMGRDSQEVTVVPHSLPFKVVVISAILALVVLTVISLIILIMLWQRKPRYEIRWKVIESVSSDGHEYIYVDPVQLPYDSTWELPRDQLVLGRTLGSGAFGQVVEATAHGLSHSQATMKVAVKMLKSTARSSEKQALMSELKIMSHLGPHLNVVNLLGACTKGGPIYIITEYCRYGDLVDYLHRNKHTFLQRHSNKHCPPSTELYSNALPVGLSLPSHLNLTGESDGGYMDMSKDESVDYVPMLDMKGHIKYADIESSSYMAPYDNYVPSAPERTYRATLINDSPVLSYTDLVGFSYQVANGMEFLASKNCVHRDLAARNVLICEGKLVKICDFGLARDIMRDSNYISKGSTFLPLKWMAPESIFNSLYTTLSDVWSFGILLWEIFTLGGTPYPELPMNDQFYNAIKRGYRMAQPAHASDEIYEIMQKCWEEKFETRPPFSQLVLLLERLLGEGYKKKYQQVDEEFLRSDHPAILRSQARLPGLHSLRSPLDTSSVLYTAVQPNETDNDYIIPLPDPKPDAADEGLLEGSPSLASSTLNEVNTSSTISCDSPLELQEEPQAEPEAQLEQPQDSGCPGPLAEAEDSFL
Briefly: PDGF receptor autophosphorylation inhibition in cultured rat mesangial cells. Format: cell-based. To be noted: PDGF-BB 50 ng/ml. The protocol:
1. Cultivation of rat mesangial cells
The glomerulus-derived adhesive cells were subcultured several times to obtain mesangial cells. The mesangial cells subcultured more than 5 passages were used for the assay.
2.Evaluation of PDGF receptor autophosphorylation inhibition
The mesangial cells were seeded in 24-well flat-bottom microtiter plates and then cultured in the medium containing 10% FCS for 2 days. When the cells were grown to about 3×10^4 cells per well, the medium was changed to the medium containing 0.5% FCS, the cultivation was continued for another 3 days, and then cell growth was arrested. The culture medium was removed, the adhered cells were washed with 500 μl of the medium, and 250 μl of the medium containing 0.1% bovine serum albumin (hereinafter abbreviated to BSA) was then added. A test drug dissolved in 1.38 μl of dimethyl sulfoxide (hereinafter abbreviated to DMSO) was added to this culture medium, and the admixture was incubated at 37° C. for 1 hour. Recombinant human platelet-derived growth factor BB chain (hereinafter abbreviated to PDGF-BB) was dissolved in the medium containing 0.1% BSA, 25 μl per well of the solution was added at final 50 ng/ml, and the incubation was continued at 37° C. for 10 minutes. […] The cells were allowed to stand at 4° C. for 30 minutes for lysis, and the resulting solution was thoroughly admixed with an equal amount of Tris-buffered physiological saline containing 1% sodium dodecyl sulfate (hereinafter abbreviated to SDS). […] After the electrophoresis, proteins in the gel were electrically transferred to a PVDF filter, which was then subjected to Western blotting using monoclonal antibodies against phosphotyrosine. Bands of PDGF receptor (molecular weight: about 180 Kda) which were autophosphorylated due to the addition of PDGF-BB were quantitated by a densitometer. Autophosphorylation rates for individual wells with drugs were calculated by setting measurements for PDGF receptor autophosphorylation in the wells without drugs in the presence and absence of PDGF-BB as 100% and 0%, respectively.
On to `COc1cc2nccc(Oc3ccc(NC(=O)Nc4ccc(F)cc4F)cc3)c2cc1OC` [Compound 272, N-(2,4-Difluorophenyl)-N'-{4-[(6,7-dimethoxy-4-quinolyl)oxy]phenyl}urea], for which the pIC50 was 8.52.

In turn, `COc1cc2nccc(Oc3ccc(NC(=O)NC(C)C)cc3)c2cc1OC` [Compound 135] had a pIC50 of 7.37. Same read-out and setting: for `COc1cc2nccc(Oc3ccc(NC(=O)Nc4ccc(Cl)c([N+](=O)[O-])c4)cc3)c2cc1OC` [Compound 228, N-(4-Chloro-3-nitrophenyl)-N'-{4-[(6,7-dimethoxy-4-quinolyl)oxy]phenyl}urea] the value was 7.26. For the molecule `CCOC(=O)c1cccc(NC(=O)Nc2ccc(Oc3ccnc4cc(OC)c(OC)cc34)cc2)c1` [Compound 233, N-(3-Ethoxycarbonylphenyl)-N'-{4-[(6,7-dimethoxy-4-quinolyl)oxy]phenyl}urea], the pIC50 was 7.89. On to `CCCCc1ccc(C(=O)Nc2ccc(Oc3ccnc4cc(OC)c(OC)cc34)cc2)cc1` [Compound 69, N-{4-[(6,7-Dimethoxy-4-quinolinyl)oxy]phenyl}-(4-butylphenyl)carboxamide], for which the pIC50 is 7.30. The same measure, in the same setting: the same measure for `COc1cc2nccc(Oc3ccc(NC(=O)NCCCCl)cc3)c2cc1OC` [Compound 278, N-(3-Chloropropyl)-N'-{4-[(6,7-dimethoxy-4-quinolyl)oxy]phenyl}urea]: 8.52; for `COc1cc2nccc(Oc3ccc(NC(=O)Nc4ccccc4Cl)cc3)c2cc1OC` [Compound 266, N-(2-Chlorophenyl)-N'-{4-[(6,7-dimethoxy-4-quinolyl)oxy]phenyl}urea]: 9.00; for `CCCCCCNC(=O)Nc1ccc(Oc2ccnc3cc(OC)c(OC)cc23)cc1` [Compound 196, N-Hexyl-N'-{4-[(6,7-dimethoxy-4-quinolyl)oxy]phenyl}urea]: 7.51. As to `COCCCNC(=O)Nc1ccc(Oc2ccnc3cc(OC)c(OC)cc23)cc1` [Compound 245, N-(3-Methoxypropyl)-N'-{4-[(6,7-dimethoxy-4-quinolyl)oxy]phenyl}urea], the pIC50 was 8.22.

Turning to `COc1cc2nccc(Oc3ccc(NC(=O)Nc4cccc(N(C)C)c4)cc3)c2cc1OC` [Compound 192], the pIC50 is 8.40.

In the next test the test system is human glioma (GLO7). In words: Antitumor effect of the compounds against human glioma (GLO7), nude mice xenograft. Format: in vivo. The note with it: Mus musculus, po, 216 h, read-out: Tumor growth inhibition rate (TGIR). Background: Xenograft models place foreign cells or tissue in a host animal.
Experimental: Analogously to 2, human glioma cells, GLO7 (obtained from the Central Institute for Experimental Animals), was transplanted into nude mice. When the tumor had grown to a volume of about 100 mm^3, the nude mice were divided into several groups of 4 animals so as to equalize the average tumor volumes of each group. The test drug was administered orally to animals in experimental groups once a day for 9 consecutive days at 50 mg/kg, and the vehicle was administered to control animals. The tumor growth inhibition rate (TGIR, %) was calculated from the equation: TGIR=(1-Tx/Cx)×100, in which Cx is the tumor volume in the control mice and Tx is the tumor volume in the drug-treated mice, on day X, when the initial tumor volume at the time treatment was commenced is set 1.
In the case of `COc1cc2nccc(Oc3ccc(NC(=O)Nc4ccc(Cl)cc4)cc3)c2cc1OC` [Compound 165, N-(4-Chlorophenyl)-N'-{4-[(6,7-dimethoxy-4-quinolyl)oxy]phenyl}urea], the inhibition in vivo at 50 mg/kg was 70%. Turning to `COc1cc2nccc(Oc3ccc(NC(=O)Nc4ccc(Cl)c(Cl)c4)cc3)c2cc1OC` [Compound 236, N-(3,4-Dichlorophenyl)-N'-[4-[(6,7-dimethoxy-4-quinolyl)oxy]phenyl}urea], the inhibition in vivo at 50 mg/kg was 84%. Regarding `COc1cc2nccc(Oc3ccc(NC(=O)Nc4cc(Cl)cc(Cl)c4)cc3)c2cc1OC` [Compound 237, N-(3,5-Dichlorophenyl)-N'-{4-[(6,7-dimethoxy-4-quinolyl)oxy]phenyl}urea], the inhibition in vivo at 50 mg/kg was 74%. In the case of `COc1cc2nccc(Oc3ccc(NC(=O)Nc4cc(Cl)ccc4Cl)cc3)c2cc1OC` [Compound 235], the inhibition in vivo at 50 mg/kg is 78%. Regarding `COc1cc2nccc(Oc3ccc(NC(=O)Nc4ccc(Cl)cc4Cl)cc3)c2cc1OC` [Compound 229, N-(2,4-Dichlorophenyl)-N'-{4-[(6,7-dimethoxy-4-quinolyl)oxy]phenyl}urea], the inhibition in vivo at 50 mg/kg came out at 81%.

Staying with this test, now noted: Mus musculus, po, 216 h; nude mice, 50 mg/kg orally once a day, 9 days; read-out: Tumor growth inhibition rate (TGIR).
Take `COc1cc2nccc(Oc3ccc(NC(=O)Nc4ccc(F)cc4F)cc3)c2cc1OC` [Compound 272, N-(2,4-Difluorophenyl)-N'-{4-[(6,7-dimethoxy-4-quinolyl)oxy]phenyl}urea]: the inhibition in vivo at 50 mg/kg was found to be 84%. With `COc1cc2nccc(Oc3ccc(NC(=O)Nc4cc(C(F)(F)F)ccc4C(F)(F)F)cc3)c2cc1OC` [Compound 264, N-(2,5-Bis(trifluoromethyl)phenyl]-N'-{4-[(6,7-dimethoxy-4-quinolyl)oxy]phenyl}urea], the inhibition in vivo at 50 mg/kg worked out at 63%. As for `COc1cc2nccc(Oc3ccc(NC(=O)Nc4ccccc4N(C)C)cc3)c2cc1OC` [Compound 191], the inhibition in vivo at 50 mg/kg came out at 50%.
